Measured values published in the supplement of paper PMC10307832.

What was measured:
Experiment in all cases: relative viability (nuclei count vs DMSO), 5 days (fraction); higher = more cells survive
MK-8033 + Foretinib = compound: Cn1cc(-c2cnc3ccc4ccc(CS(=O)(=O)NCc5ccccn5)cc4c(=O)c3c2)cn1 [MK-8033] + COc1cc2c(Oc3ccc(NC(=O)C4(C(=O)Nc5ccc(F)cc5)CC4)cc3F)ccnc2cc1OCCCN1CCOCC1 [Foretinib] (partner 0.25 µM)
Summary of the method: (§1)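 Five library-drug doses in √10 steps were combined with a fixed anchor-drug dose, or a single drug was given alone, by pin tool to lung cancer cell lines in 1536-well plates the day after seeding. Nuclei were stained and counted after 5 days. Relative viability is the nuclei count in treated wells over that in vehicle wells, taken as the median of duplicate plates.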

Irinotecan + OSI-027 = compound: CCc1c2c(nc3ccc(OC(=O)N4CCC(N5CCCCC5)CC4)cc13)-c1cc3c(c(=O)n1C2)COC(=O)[C@]3(O)CC [Irinotecan] + COc1cccc2cc(-c3nc([C@H]4CC[C@H](C(=O)O)CC4)n4ncnc(N)c34)[nH]c12 [OSI-027] (partner 0.5 µM)
Summary of the method: as §1

RU-SKI 43 + Phenformin = compound: CC[C@@H](C)CNCC(=O)N1CCC2=C([C@@H]1COC3=CC=CC(=C3)C)C=CS2 [RU-SKI 43] + N=C(N)NC(=N)NCCc1ccccc1 [Phenformin] (partner 250 µM)
Summary of the method: as §1

RU-SKI 43 + Vorinostat = compound: CC[C@@H](C)CNCC(=O)N1CCC2=C([C@@H]1COC3=CC=CC(=C3)C)C=CS2 [RU-SKI 43] + O=C(CCCCCCC(=O)Nc1ccccc1)NO [Vorinostat] (partner 1 µM)
Summary of the method: as §1

Cell Line: UMC-11
- relative viability (MK-8033 + Foretinib; first compound 0.02 µM): 1.08
- relative viability (MK-8033 + Foretinib; first compound 0.06325 µM): 1.04
- relative viability (MK-8033 + Foretinib; first compound 0.2 µM): 0.989
- relative viability (MK-8033 + Foretinib; first compound 2 µM): 1.08
- relative viability (Irinotecan + OSI-027; first compound 0.6325 µM): 0.461
- relative viability (Irinotecan + OSI-027; first compound 2 µM): 0.475
- relative viability (Irinotecan + OSI-027; first compound 6.325 µM): 0.279
- relative viability (Irinotecan + OSI-027; first compound 20 µM): 0.155
- relative viability (RU-SKI 43 + Phenformin; first compound 0.1 µM): 0.349
- relative viability (RU-SKI 43 + Phenformin; first compound 0.3162 µM): 0.366
- relative viability (RU-SKI 43 + Phenformin; first compound 1 µM): 0.33
- relative viability (RU-SKI 43 + Phenformin; first compound 3.162 µM): 0.32
- relative viability (RU-SKI 43 + Phenformin; first compound 10 µM): 0.344
- relative viability (RU-SKI 43 + Vorinostat; first compound 0.1 µM): 0.386
- relative viability (RU-SKI 43 + Vorinostat; first compound 0.3162 µM): 0.328
- relative viability (RU-SKI 43 + Vorinostat; first compound 1 µM): 0.473
- relative viability (RU-SKI 43 + Vorinostat; first compound 3.162 µM): 0.407
- relative viability (RU-SKI 43 + Vorinostat; first compound 10 µM): 0.352
